Data published in PMC9683047, “Design, synthesis and biological evaluation of 4-aminoquinoline derivatives as receptor-interacting protein kinase 2 (RIPK2) inhibitors” (Journal of Enzyme Inhibition and Medicinal Chemistry, 2022).

Experiments:
[1] = molecular target: T1, RIPK2 (Homo sapiens, UniProt O43353); assay: RIPK2 kinase inhibition assay (ADP-Glo); assay type: biochemical; conditions: mean ± SD from two separate experiments
T1 construct: purchased Promega
Method: RIPK2 kinase activity was analysed using the ADP-Glo™ Assay Kit (RIPK2 Kinase Enzyme System, Promega, USA). Reactions were performed according to the instructions. Specific signal was calculated by subtracting values in the wells without protein and inhibitor from the values in the test wells.

[2] = molecular target: T2, RIPK1 (Homo sapiens, UniProt Q13546); assay: RIPK1 inhibition rate at 1 µM; assay type: biochemical
T2 sequence (Q13546 1-671): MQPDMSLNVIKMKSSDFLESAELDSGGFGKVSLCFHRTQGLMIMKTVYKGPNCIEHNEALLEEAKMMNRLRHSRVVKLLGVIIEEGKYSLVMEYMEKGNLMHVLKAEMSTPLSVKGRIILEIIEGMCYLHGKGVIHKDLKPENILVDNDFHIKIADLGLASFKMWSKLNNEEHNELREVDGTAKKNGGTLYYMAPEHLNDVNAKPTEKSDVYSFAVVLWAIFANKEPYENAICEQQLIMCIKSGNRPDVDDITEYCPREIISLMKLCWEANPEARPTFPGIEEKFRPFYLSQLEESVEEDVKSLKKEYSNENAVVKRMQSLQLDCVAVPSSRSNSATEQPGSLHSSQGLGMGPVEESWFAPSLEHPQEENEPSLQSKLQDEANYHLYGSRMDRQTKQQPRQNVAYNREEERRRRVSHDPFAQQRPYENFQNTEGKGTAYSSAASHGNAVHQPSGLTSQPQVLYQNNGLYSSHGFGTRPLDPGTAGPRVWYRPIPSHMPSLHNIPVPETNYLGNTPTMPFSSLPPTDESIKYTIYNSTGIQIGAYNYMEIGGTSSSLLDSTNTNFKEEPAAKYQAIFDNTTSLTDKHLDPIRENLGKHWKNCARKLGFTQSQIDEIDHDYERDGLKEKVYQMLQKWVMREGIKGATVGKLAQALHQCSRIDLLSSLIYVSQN
Method: Table 4. Selectivity, ClogP and LipE of compound 14, 15, 21, 32, 36. | column: RIPK1 IR@1µM (%)

[3] = molecular target: T1, RIPK2; assay: Lipophilic ligand efficiency (LipE); conditions: LipE = pIC50 − ClogP
[4] = test system: MDP-induced TNF-α secretion in Raw264.7; assay: TNF-α secretion in MDP-induced Raw264.7 (ELISA); assay type: cell-based, mouse; conditions: Raw264.7, compounds 1 h then L18-MDP 20 µg/mL 24 h, series concentration
Method: Raw 264.7 was cultured in DMEM containing 10% (w/v) foetal bovine serum (FBS). Cell were seeded at a density of 1 × 10^5 cells/well in a 48 well plate overnight, then cells were treated with different concentrations of compounds for1h, following by stimulated with L18-MDP (20 µg/mL, Invivogen) for 24 h. The Cell supernatants were harvested for enzyme-linked immunosorbent assay (ELISA).
TNFα commercial ELISA kits (DAKEWE) were used to detect TNFα in cell culture supernatants according to the manufacturer’s instructions. The concentration of cytokines was determined using multiwell spectrophotometer (SpetraMAX PLUS, Molecular Devices).

[5] = molecular target: T3, AO oxidase (Homo sapiens, UniProt Q06278); assay: AO oxidative metabolism in human liver cytosol; assay type: in vitro ADME; conditions: human liver cytosol incubation; inhibitors raloxifene and menadione
T3 construct: could undergo mono oxidative metabolism in the human liver cytosol incubation system; from tissue; host or cells: human liver cytosol
T3 sequence (Q06278 whole entry): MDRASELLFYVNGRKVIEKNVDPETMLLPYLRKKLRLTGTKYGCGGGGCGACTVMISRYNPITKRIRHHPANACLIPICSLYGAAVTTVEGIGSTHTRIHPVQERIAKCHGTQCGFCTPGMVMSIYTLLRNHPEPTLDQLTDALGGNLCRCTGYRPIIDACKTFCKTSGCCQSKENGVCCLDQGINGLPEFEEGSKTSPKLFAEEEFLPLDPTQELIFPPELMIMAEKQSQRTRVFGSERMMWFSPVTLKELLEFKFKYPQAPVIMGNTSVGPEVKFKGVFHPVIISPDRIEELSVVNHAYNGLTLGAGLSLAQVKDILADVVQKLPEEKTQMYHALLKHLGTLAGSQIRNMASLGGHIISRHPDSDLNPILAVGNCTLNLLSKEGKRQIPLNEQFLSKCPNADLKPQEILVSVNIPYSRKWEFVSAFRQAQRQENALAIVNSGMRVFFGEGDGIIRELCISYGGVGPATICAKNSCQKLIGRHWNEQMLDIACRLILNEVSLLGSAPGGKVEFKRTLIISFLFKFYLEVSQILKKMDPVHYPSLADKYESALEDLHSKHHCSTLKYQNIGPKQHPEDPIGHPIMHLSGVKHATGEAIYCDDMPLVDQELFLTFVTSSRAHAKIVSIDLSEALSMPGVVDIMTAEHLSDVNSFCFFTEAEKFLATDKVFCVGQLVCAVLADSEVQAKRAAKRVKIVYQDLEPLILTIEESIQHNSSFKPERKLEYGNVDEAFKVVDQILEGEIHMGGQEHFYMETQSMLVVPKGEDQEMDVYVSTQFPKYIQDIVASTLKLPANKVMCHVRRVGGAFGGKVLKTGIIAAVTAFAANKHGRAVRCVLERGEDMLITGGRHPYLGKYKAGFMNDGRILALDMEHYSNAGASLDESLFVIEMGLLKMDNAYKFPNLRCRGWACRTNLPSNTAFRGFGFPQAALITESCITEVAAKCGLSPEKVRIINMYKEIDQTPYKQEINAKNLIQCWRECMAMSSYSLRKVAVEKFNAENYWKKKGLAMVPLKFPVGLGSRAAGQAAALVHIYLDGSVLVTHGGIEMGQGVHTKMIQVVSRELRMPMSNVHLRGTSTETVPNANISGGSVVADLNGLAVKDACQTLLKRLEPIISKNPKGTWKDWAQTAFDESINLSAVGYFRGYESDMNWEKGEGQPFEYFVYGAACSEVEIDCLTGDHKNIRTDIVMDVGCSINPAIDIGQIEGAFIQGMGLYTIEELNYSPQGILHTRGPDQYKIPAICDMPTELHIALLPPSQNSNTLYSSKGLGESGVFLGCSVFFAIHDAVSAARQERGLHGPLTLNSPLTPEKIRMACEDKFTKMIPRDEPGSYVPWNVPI
Method: However, we have done experiment on AO oxidative metabolism of compound 14 and P5. Both compound 14 and P5 could undergo mono oxidative metabolism in the human liver cytosol incubation system.

T1 sequence (O43353 whole entry): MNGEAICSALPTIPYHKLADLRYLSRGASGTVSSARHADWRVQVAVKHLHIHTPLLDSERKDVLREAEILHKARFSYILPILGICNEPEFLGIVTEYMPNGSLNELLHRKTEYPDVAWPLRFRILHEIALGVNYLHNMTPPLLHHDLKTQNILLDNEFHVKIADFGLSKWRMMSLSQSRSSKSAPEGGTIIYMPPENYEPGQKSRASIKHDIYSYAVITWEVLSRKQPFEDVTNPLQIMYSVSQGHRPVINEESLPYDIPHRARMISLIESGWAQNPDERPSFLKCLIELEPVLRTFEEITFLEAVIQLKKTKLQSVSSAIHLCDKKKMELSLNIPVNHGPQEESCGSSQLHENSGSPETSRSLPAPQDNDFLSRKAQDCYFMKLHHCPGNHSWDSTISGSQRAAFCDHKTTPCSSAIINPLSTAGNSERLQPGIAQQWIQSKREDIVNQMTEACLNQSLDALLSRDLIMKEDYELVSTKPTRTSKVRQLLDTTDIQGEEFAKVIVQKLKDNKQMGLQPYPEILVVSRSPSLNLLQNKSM

SMILES | IC50 [1] | RIPK1 IR@1µM (%) [2] | LipE [3] | inhibition of MDP-induced TNF-α secretion [4] | AO oxidase substrate [5]
c1cncc(-c2ccc3nccc(Nc4ccc5scnc5c4)c3c2)c1 [Compound 15, N-(6-(pyridin-3-yl)quinolin-4-yl)benzo[d]thiazol-5-amine] | 6 ± 1.5 nM | <1% | 4.27 | almost no inhibition | –
CC(C)(C)S(=O)(=O)c1cc2c(Nc3ccc4scnc4c3)ncnc2cc1OCCO [Compound P5, reference compound] | 2.6 ± 1.2 nM | – | 6.70 | – | metabolic substrates of AO oxidase
